From patent US20200323802A1, “SUPPORTING IMMUNOMODULATORY AGENT” (Flexopharm Brain GMBH & Go. KG, priority 2015, published 2020)
“Also recorded” adds a separate entry of the source.

Legend:
[1] = test system: Foxp3; experiment: Gene expression profiling of signature cytokines in EAE mice; type: in vivo, mouse; settings: propionic acid-fed mice with EAE
Source text: (§1) In mice treated with propionic acid, the number of regulatory T cells increases with the changes that occur in the microbiota (CD4+CD25+ Foxp3+ Treg).

[2] = test system: IL-10; experiment: as above; type: in vivo, mouse; settings: propionic acid-fed mice with EAE
Source text: as §1

[3] = test system: TGFβ1; experiment: as above; type: in vivo, mouse; settings: propionic acid-fed mice with EAE
Source text: as §1

[4] = test system: CD4+CD25+ Foxp3+ Treg; experiment: Levels of CD4+CD25+ Foxp3 regulatory T cells in mouse EAE model; type: in vivo
Description: FIG. 4: is a graph showing the effect of propionic acid diet initiated at the time of disease induction (DI) compared to a control group on levels of CD4+CD25+ Foxp3 cells in mouse EAE model
FIG. 5 is a graph showing the effect of lauric acid diet (250 μM and 500 μM) initiated at the time of disease induction (DI) compared to a control group on levels of CD4+CD25+ Foxp3 cells in mouse EAE model,
(§2) Mice kept under standardized conditions were fed on a normal diet enriched with long-chain fatty acids (30.9% lauric acid) and with 200 μl of propionate daily administered orally. The propionate was given either at the time of disease induction (DI) or at the onset of the disease (OD).
(§3) For the induction of EAE the mice were anesthetized and administered two subcutaneous injections of a 50 μl emulsion applied to the left and right tail basis and comprising a total of 200 μg MOG35-55 (myelin oligodendrocyte glycoprotein) and 200 μg Freund's adjuvant (CFA) with 4 mg/ml of M. tuberculosis. Pertussis toxin ([…]) was given intraperitoneally on day 0 and day 2 after the induction. The clinical assessment took place on a daily basis using a 5-point scale (SEM).

[5] = test system: experimental autoimmune encephalomyelitis (EAE); experiment: EAE mouse model: relative axonal density, demyelination of the white matter, CD3+ cells; type: in vivo; settings: propionic acid (DI or OD), FIG. 3
Description: FIG. 3: is a graph showing the effect of propionic acid diet initiated at the time of disease induction (DI) or at the time of onset of symptoms (OD) compared to a diet control group on relative axonal density, demyelination in the white matter, and CD3+ cells in the mouse EAE model.
as §2
as §3, with “(SEM). The assessment was as follows:” for “(SEM).”
The influence of the propionic acid on the relative axonal density, the demyelination of the white matter, and the number of CD3+-cells is shown in FIG. 3.

[6] = test system: experimental autoimmune encephalomyelitis (EAE); experiment: EAE mouse model, daily clinical assessment on 5-point scale (SEM); type: in vivo
Description: as §2
as §3, with “(SEM). The assessment was as follows:” for “(SEM).”
0=normal 1=Tail paralysis impairing raising 2=Gait ataxia 3=Paraparesis of hind legs
Mice showing SEM 4 or 5 were excluded.

[7] = test system: TH1 and TH17 cells; experiment: Th1/Th17 cells in small bowel and central nervous system in EAE mice; type: in vivo; settings: mouse EAE, lauric acid enriched diet
Source text: Moreover, the aliphatic chain length of the carboxylic acids also affects the […] autoimmunity as well as the regulatory response of Treg in an in vivo mouse model. […] In this context, MS and psoriasis are to be regarded as largely similar.

[8] = test system: intestinal microbiome; experiment: Influence on composition of the intestinal microbiome; type: in vivo; settings: present in mice
Source text: The inventive acids, in particular propionic acid and butyric acid have an influence on the intestinal physiology and the microbiome present there. In this way, they have an impact on the composition of the microbiome.

[9] = test system: Treg cells; experiment: Treg cells in MS patients before and after 14 days of treatment with sodium propionate plus MS drug; type: in vivo, human; settings: pooled comparison group, patient-specific dose of the MS drug together with sodium propionate 2×0.5 g daily, before vs after 14 days, FIG. 6
Source text: The disproportionate increase in the amount of Treg cells signifies a corresponding reduction in the autoimmune response.

CCC(=O)O [propionic acid]
Foxp3 gene expression [1]: increased values; also recorded: significant increase
IL-10 gene expression [2]: increased values; also recorded: significant increase
TGFβ1 gene expression [3]: increased values; also recorded: significant increase
CD4+CD25+ Foxp3 cells versus control group ([4]; propionic acid administration (DI), FIG. 4): increases; also recorded: significant increase
relative axonal density, demyelination of the white matter and number of CD3+ cells versus control group [5]: significant improvement
course of induced disease versus control group ([6]; MS mouse model (EAE), propionic acid given prophylactically): significant improvement
disease progression (SEM) versus control group ([6]; mouse EAE, propionic acid given orally on the day of onset of disease (OD), FIG. 2): significantly less favorable disease progression than the control group

CCCCCCCCCCCC(=O)O [lauric acid]
CD4+CD25+ Foxp3 cells versus control value ([4]; lauric acid enriched diet (250 μM and 500 μM), concentration dependent, FIG. 5): reduction
TH1 and TH17 cells in the small bowel [7]: significant reduction
Th1/Th17 in the central nervous system [7]: accumulation
number of Provotellaceae and some families of Phylum Bacteroidetes [8]: reduce significantly

glatiramer acetate
increase in number of Treg cells by a factor [9]: 1.1

CCCCCCCCc1ccc(CCC(N)(CO)CO)cc1 [fingolimod]
increase in number of Treg cells by a factor [9]: 1.1

C/C(O)=C(\C#N)C(=O)Nc1ccc(C(F)(F)F)cc1 [teriflunomide]
increase in number of Treg cells by a factor [9]: 1.1
